Each block holds one molecule with its values, some of them ahead of it. No end group written: not given here.
Legend:
[1] = tested on: A. thaliana seedlings; test: Seedling growth inhibition (fresh weight); assay type: in vivo, Arabidopsis thaliana; conditions: mock mean = 1
Procedure: Four-day-old seedlings growing on MS plates were transferred individually into separate wells of transparent 48-well tissue culture plates (Greiner Bio-One) containing 500 μL of liquid MS media with/without elicitor addition. The plates were then transferred back to the growth conditions for an additional 10 days before seedlings were blot-dried and weighed.

[2] = biological target: MIK2–SCOOP12 complex (MIK2 ectodomain with SCOOP12 peptide, formed beforehand in the ITC cell) (Arabidopsis thaliana) (UniProt Q8VZG8); test: ITC; 200 µM BAK1 ectodomain titrated onto the MIK2–SCOOP12 complex in the cell; 25 °C; 20 mM sodium citrate pH 5.0, 150 mM NaCl; N fitted to 1

Molecule: YLPPSKSRKGKGP [SCOOP13]
- Seedling fresh weight (Fig3C), relative to mock ([1]; Col-0, 1 μM, replicate 1): 0.6301
- Seedling fresh weight (Fig3C), relative to mock ([1]; Col-0, 1 μM, replicate 2): 0.5631
- Seedling fresh weight (Fig3C), relative to mock ([1]; Col-0, 1 μM, replicate 3): 0.764
- Seedling fresh weight (Fig3C), relative to mock ([1]; Col-0, 1 μM, replicate 4): 0.8644
- Seedling fresh weight (Fig3C), relative to mock ([1]; Col-0, 1 μM, replicate 5): 0.9892
- Seedling fresh weight (Fig3C), relative to mock ([1]; Col-0, 1 μM, replicate 6): 0.5388
- Seedling fresh weight (Fig3C), relative to mock ([1]; Col-0, 1 μM, replicate 7): 0.6544
- Seedling fresh weight (Fig3C), relative to mock ([1]; Col-0, 1 μM, replicate 8): 0.7792
- Seedling fresh weight (Fig3C), relative to mock ([1]; Col-0, 1 μM, replicate 9): 0.7397
- Seedling fresh weight (Fig3C), relative to mock ([1]; Col-0, 1 μM, replicate 10): 0.831
- Seedling fresh weight (Fig3C), relative to mock ([1]; Col-0, 1 μM, replicate 11): 0.6483
- Seedling fresh weight (Fig3C), relative to mock ([1]; Col-0, 1 μM, replicate 12): 0.7549
- Seedling fresh weight (Fig3C), relative to mock ([1]; Col-0, 10 μM, replicate 1): 0.02426
- Seedling fresh weight (Fig3C), relative to mock ([1]; Col-0, 10 μM, replicate 2): 0.03639
- Seedling fresh weight (Fig3C), relative to mock ([1]; Col-0, 10 μM, replicate 3): 0.03942
- Seedling fresh weight (Fig3C), relative to mock ([1]; Col-0, 10 μM, replicate 4): 0.03336
- Seedling fresh weight (Fig3C), relative to mock ([1]; Col-0, 10 μM, replicate 5): 0.04246
- Seedling fresh weight (Fig3C), relative to mock ([1]; Col-0, 10 μM, replicate 6): 0.03033
- Seedling fresh weight (Fig3C), relative to mock ([1]; Col-0, 10 μM, replicate 7): 0.03639
- Seedling fresh weight (Fig3C), relative to mock ([1]; Col-0, 10 μM, replicate 8): 0.06975
- Seedling fresh weight (Fig3C), relative to mock ([1]; Col-0, 10 μM, replicate 9): 0.07278
- Seedling fresh weight (Fig3C), relative to mock ([1]; Col-0, 10 μM, replicate 10): 0.04549
- Seedling fresh weight (Fig3C), relative to mock ([1]; Col-0, 10 μM, replicate 11): 0.03942
- Seedling fresh weight (Fig3C), relative to mock ([1]; Col-0, 10 μM, replicate 12): 0.04852
- Seedling fresh weight (Fig3C), relative to mock ([1]; mik2-1, 1 μM, replicate 1): 0.9552
- Seedling fresh weight (Fig3C), relative to mock ([1]; mik2-1, 1 μM, replicate 2): 1.033
- Seedling fresh weight (Fig3C), relative to mock ([1]; mik2-1, 1 μM, replicate 3): 0.6626
- Seedling fresh weight (Fig3C), relative to mock ([1]; mik2-1, 1 μM, replicate 4): 0.8038
- Seedling fresh weight (Fig3C), relative to mock ([1]; mik2-1, 1 μM, replicate 5): 1.026
- Seedling fresh weight (Fig3C), relative to mock ([1]; mik2-1, 1 μM, replicate 6): 0.9081
- Seedling fresh weight (Fig3C), relative to mock ([1]; mik2-1, 1 μM, replicate 7): 1.002
- Seedling fresh weight (Fig3C), relative to mock ([1]; mik2-1, 1 μM, replicate 8): 0.9854
- Seedling fresh weight (Fig3C), relative to mock ([1]; mik2-1, 1 μM, replicate 9): 1.022
- Seedling fresh weight (Fig3C), relative to mock ([1]; mik2-1, 1 μM, replicate 10): 1.049
- Seedling fresh weight (Fig3C), relative to mock ([1]; mik2-1, 1 μM, replicate 11): 1.127
- Seedling fresh weight (Fig3C), relative to mock ([1]; mik2-1, 1 μM, replicate 12): 1.002
- Seedling fresh weight (Fig3C), relative to mock ([1]; mik2-1, 10 μM, replicate 1): 1.163
- Seedling fresh weight (Fig3C), relative to mock ([1]; mik2-1, 10 μM, replicate 2): 0.8385
- Seedling fresh weight (Fig3C), relative to mock ([1]; mik2-1, 10 μM, replicate 3): 1.18
- Seedling fresh weight (Fig3C), relative to mock ([1]; mik2-1, 10 μM, replicate 4): 1.075
- Seedling fresh weight (Fig3C), relative to mock ([1]; mik2-1, 10 μM, replicate 5): 0.8419
- Seedling fresh weight (Fig3C), relative to mock ([1]; mik2-1, 10 μM, replicate 6): 0.8825
- Seedling fresh weight (Fig3C), relative to mock ([1]; mik2-1, 10 μM, replicate 7): 1.082
- Seedling fresh weight (Fig3C), relative to mock ([1]; mik2-1, 10 μM, replicate 8): 0.9738
- Seedling fresh weight (Fig3C), relative to mock ([1]; mik2-1, 10 μM, replicate 9): 0.9332
- Seedling fresh weight (Fig3C), relative to mock ([1]; mik2-1, 10 μM, replicate 10): 0.9569
- Seedling fresh weight (Fig3C), relative to mock ([1]; mik2-1, 10 μM, replicate 11): 0.9941
- Seedling fresh weight (Fig3C), relative to mock ([1]; mik2-1, 10 μM, replicate 12): 0.896

Molecule: PVRSSRSPRSPSF [SCOOP2]
- Seedling fresh weight (Fig3C), relative to mock ([1]; Col-0, 1 μM, replicate 1): 1.166
- Seedling fresh weight (Fig3C), relative to mock ([1]; Col-0, 1 μM, replicate 2): 0.8827
- Seedling fresh weight (Fig3C), relative to mock ([1]; Col-0, 1 μM, replicate 3): 1.02
- Seedling fresh weight (Fig3C), relative to mock ([1]; Col-0, 1 μM, replicate 4): 1.184
- Seedling fresh weight (Fig3C), relative to mock ([1]; Col-0, 1 μM, replicate 5): 0.971
- Seedling fresh weight (Fig3C), relative to mock ([1]; Col-0, 1 μM, replicate 6): 0.6909
- Seedling fresh weight (Fig3C), relative to mock ([1]; Col-0, 1 μM, replicate 7): 0.9497
- Seedling fresh weight (Fig3C), relative to mock ([1]; Col-0, 1 μM, replicate 8): 0.9771
- Seedling fresh weight (Fig3C), relative to mock ([1]; Col-0, 1 μM, replicate 9): 0.9071
- Seedling fresh weight (Fig3C), relative to mock ([1]; Col-0, 1 μM, replicate 10): 0.9253
- Seedling fresh weight (Fig3C), relative to mock ([1]; Col-0, 1 μM, replicate 11): 0.8736
- Seedling fresh weight (Fig3C), relative to mock ([1]; Col-0, 1 μM, replicate 12): 0.9892
- Seedling fresh weight (Fig3C), relative to mock ([1]; Col-0, 10 μM, replicate 1): 0.6187
- Seedling fresh weight (Fig3C), relative to mock ([1]; Col-0, 10 μM, replicate 2): 0.9067
- Seedling fresh weight (Fig3C), relative to mock ([1]; Col-0, 10 μM, replicate 3): 0.8218
- Seedling fresh weight (Fig3C), relative to mock ([1]; Col-0, 10 μM, replicate 4): 0.6399
- Seedling fresh weight (Fig3C), relative to mock ([1]; Col-0, 10 μM, replicate 5): 0.5307
- Seedling fresh weight (Fig3C), relative to mock ([1]; Col-0, 10 μM, replicate 6): 0.5914
- Seedling fresh weight (Fig3C), relative to mock ([1]; Col-0, 10 μM, replicate 7): 0.649
- Seedling fresh weight (Fig3C), relative to mock ([1]; Col-0, 10 μM, replicate 8): 0.6005
- Seedling fresh weight (Fig3C), relative to mock ([1]; Col-0, 10 μM, replicate 9): 0.5337
- Seedling fresh weight (Fig3C), relative to mock ([1]; Col-0, 10 μM, replicate 10): 0.555
- Seedling fresh weight (Fig3C), relative to mock ([1]; Col-0, 10 μM, replicate 11): 0.7005
- Seedling fresh weight (Fig3C), relative to mock ([1]; Col-0, 10 μM, replicate 12): 0.6793
- Seedling fresh weight (Fig3C), relative to mock ([1]; mik2-1, 1 μM, replicate 1): 0.8038
- Seedling fresh weight (Fig3C), relative to mock ([1]; mik2-1, 1 μM, replicate 2): 0.7937
- Seedling fresh weight (Fig3C), relative to mock ([1]; mik2-1, 1 μM, replicate 3): 1.093
- Seedling fresh weight (Fig3C), relative to mock ([1]; mik2-1, 1 μM, replicate 4): 1.0157
- Seedling fresh weight (Fig3C), relative to mock ([1]; mik2-1, 1 μM, replicate 5): 1.096
- Seedling fresh weight (Fig3C), relative to mock ([1]; mik2-1, 1 μM, replicate 6): 0.8812
- Seedling fresh weight (Fig3C), relative to mock ([1]; mik2-1, 1 μM, replicate 7): 0.972
- Seedling fresh weight (Fig3C), relative to mock ([1]; mik2-1, 1 μM, replicate 8): 0.898
- Seedling fresh weight (Fig3C), relative to mock ([1]; mik2-1, 1 μM, replicate 9): 1.0157
- Seedling fresh weight (Fig3C), relative to mock ([1]; mik2-1, 1 μM, replicate 10): 1.002
- Seedling fresh weight (Fig3C), relative to mock ([1]; mik2-1, 1 μM, replicate 11): 1.083
- Seedling fresh weight (Fig3C), relative to mock ([1]; mik2-1, 1 μM, replicate 12): 1.063
- Seedling fresh weight (Fig3C), relative to mock ([1]; mik2-1, 10 μM, replicate 1): 1.068
- Seedling fresh weight (Fig3C), relative to mock ([1]; mik2-1, 10 μM, replicate 2): 1.011
- Seedling fresh weight (Fig3C), relative to mock ([1]; mik2-1, 10 μM, replicate 3): 0.7743
- Seedling fresh weight (Fig3C), relative to mock ([1]; mik2-1, 10 μM, replicate 4): 0.9434
- Seedling fresh weight (Fig3C), relative to mock ([1]; mik2-1, 10 μM, replicate 5): 0.8859
- Seedling fresh weight (Fig3C), relative to mock ([1]; mik2-1, 10 μM, replicate 6): 0.8014
- Seedling fresh weight (Fig3C), relative to mock ([1]; mik2-1, 10 μM, replicate 7): 1.0279
- Seedling fresh weight (Fig3C), relative to mock ([1]; mik2-1, 10 μM, replicate 8): 1.092
- Seedling fresh weight (Fig3C), relative to mock ([1]; mik2-1, 10 μM, replicate 9): 1.001
- Seedling fresh weight (Fig3C), relative to mock ([1]; mik2-1, 10 μM, replicate 10): 0.9772
- Seedling fresh weight (Fig3C), relative to mock ([1]; mik2-1, 10 μM, replicate 11): 1.058
- Seedling fresh weight (Fig3C), relative to mock ([1]; mik2-1, 10 μM, replicate 12): 1.106

- Kd [2]: 275 nM
B1: BAK1 ectodomain (residues 1–220) (domain or fragment)
chain: NAEGDALSALKNSLADPNKVLQSWDATLVTPCTWFHVTCNSDNSVTRVDLGNANLSGQLVMQLGQLPNLQYLELYSNNITGTIPEQLGNLTELVSLDLYLNNLSGPIPSTLGRLKKLRFLRLNNNSLSGEIPRSLTAVLTLQVLDLSNNPLTGDIPVNGSFSLFTPISFANTKLTPLPASPPPPISPTPPSPAGS
